Experiment [1] concerns rice blast fungus (Pyricularia grisea). The class given is in vivo. Conditions: 5 g of granule on nursery box, paddy rice; inoculated after 3 weeks; 7 days after inoculation.
Experiment [2] shares this test system. The class given is in vivo. As to conditions: flowable 1,000 ppm, 1 mL dripped in paddy water, inoculated after 1 week, 7 days after inoculation.
The subject of experiment [3] is rice sheath blight fungus (Thanatephorus cucumeris). Nature of the experiment: Test Example 8: control effect against rice sheath blight by box treatment (granule). As to conditions: 5 g of granule on nursery box, paddy rice; inoculated after 3 weeks; 7 days after inoculation.
For experiment [4] the test system is unchanged. Nature of the experiment: Test Example 10: control effect against rice sheath blight by water surface application (flowable formulation). As to conditions: flowable 1,000 ppm, 1 mL dripped in paddy water, inoculated after 1 week, 7 days after inoculation.
Procedure: (§1) Control value (%)=[1−(lesion height in sprayed plot/lesion height in unsprayed plot)]×100 (d)
By dripping treatment in paddy water, 1 mL of a diluted solution (1,000 ppm) of a flowable prepared according to Formulation Example-3 was applied to a 5-leaf-stage paddy rice (variety: Asahi) seedling (5 seedlings/stub, one stub/pot) grown in a pot ( 1/10000 are in size) filled with paddy soil (flooded) within a greenhouse. After growing for 1 week within a greenhouse, a culture of rice sheath blight fungus (Thanatephorus cucumeris) grown in advance on a rice straw medium was inoculated into the root of the formulation-treated paddy rice, and disease development was promoted in an artificial weather chamber at 26° C. (relative humidity=100%). Seven days after the inoculation, the rice sheath blight lesion height (height from the root) was examined, and the control value (%) was calculated according to formula (d). […] This test was performed with three replications, each consisting of one plot and one pot, per one formulation plot, and its average evaluation value of control effect was determined.
The test system of experiment [5] is barley powdery mildew fungus (Erysiphe graminis). Description: Test Example 2: control effect against barley powdery mildew by foliage application. As to conditions: wettable powder diluted to 100 ppm, 10 mL per pot foliage spray on barley; inoculated day after; 7 days after inoculation. The class given is in vivo.
Experiment [6] has as its system rice sheath blight fungus (Thanatephorus cucumeris). Nature of the experiment: Test Example 6: control effect against rice sheath blight by box treatment (flowable formulation). As to conditions: flowable 5,000 ppm, 50 mL irrigation of nursery box, paddy rice; inoculated after 3 weeks; 7 days after inoculation.
Procedure: as §1
By irrigation, 50 mL of a diluted solution (5,000 ppm) of a flowable prepared according to Formulation Example-3 was applied to a 2.5-leaf-stage paddy rice (variety: Asahi) seedling raised using a nursery box ( 1/10 the area of standard nursery box in size: 12 cm×15 cm×height 4 cm) within a greenhouse. The formulation-treated paddy rice seedling was immediately transplanted at 5 seedlings/pot into a pot ( 1/10000 are in size) filled with paddy soil (flooded). After growing for 3 weeks within a greenhouse, a culture of rice sheath blight fungus (Thanatephorus cucumeris) grown in advance on a rice straw medium was inoculated into the root of the formulation-treated paddy rice, and disease development was promoted in an artificial weather chamber at 26° C. (relative humidity=100%). Seven days after the inoculation, the rice sheath blight lesion height (height from the root) was examined, and the control value (%) was calculated according to formula (d). […] This test was performed with three replications, each consisting of one plot and one pot, per one formulation plot, and its average evaluation value of control effect was determined.
The subject of experiment [7] is rice blast fungus (Pyricularia grisea). The class given is in vivo. Conditions: flowable 5,000 ppm, 50 mL irrigation of nursery box, paddy rice; inoculated after 3 weeks; 7 days after inoculation.

Like-named read-outs stand apart in the source and are kept apart here.

As for `CC(C)CCc1ccccc1N(C(=O)c1cn(C)nc1C(F)F)C(=O)c1snc(Cl)c1Cl` [1-34], the “evaluation value of control effect (from control value, number of lesions)” value in experiment [1], in experiment [2] and in experiment [7] was 5 in each case. For the same compound, the “evaluation value of control effect (from control value, lesion height)” value in experiment [3], in experiment [4] and in experiment [6] was 5 each time. For the same compound, the “evaluation value of control effect (from control value, lesion area percentage)” value in experiment [5] came out at 4.

Consider `Cc1cc(C(=O)N(C(=O)c2cn(C)nc2C(F)F)c2ccccc2C(C)CC(C)C)sn1` (centres unmarked) [1-136], for which the “evaluation value of control effect (from control value, number of lesions)” value in experiment [1], in experiment [2] and in experiment [7] was 5 in each case. The “evaluation value of control effect (from control value, lesion height)” value in experiment [3], in experiment [4] and in experiment [6] was 5 each time. For the same compound, in experiment [5], the “evaluation value of control effect (from control value, lesion area percentage)” value came out at 4.

For the compound `Cc1nnsc1C(=O)N(C(=O)c1cn(C)nc1C(F)F)c1ccccc1CCC(C)C` [1-145], the “evaluation value of control effect (from control value, number of lesions)” value in experiment [1], in experiment [2] and in experiment [7] was 5 each time. The “evaluation value of control effect (from control value, lesion height)” value in experiment [3], in experiment [4] and in experiment [6] was 5 in each case. In addition, the “evaluation value of control effect (from control value, lesion area percentage)” value in experiment [5] amounted to 5.

With `Cc1nn(C)c(F)c1C(=O)N(C(=O)c1snnc1C(F)F)c1ccccc1C(C)CC(C)C` (centres unmarked) [1-258], the “evaluation value of control effect (from control value, number of lesions)” value in experiment [1], in experiment [2] and in experiment [7] was 5 each time. Further, the “evaluation value of control effect (from control value, lesion height)” value in experiment [3], in experiment [4] and in experiment [6] was 5 throughout. For the same compound, in experiment [5], the “evaluation value of control effect (from control value, lesion area percentage)” value came out at 4.

`Cc1nc(C(F)F)c(C(=O)N(C(=O)c2cn(C)nc2C(F)F)c2ccccc2C(C)CC(C)C)s1` (centres unmarked) [1-314]: the “evaluation value of control effect (from control value, number of lesions)” value in experiment [1], in experiment [2] and in experiment [7] was 5 in each case. For the same compound, the “evaluation value of control effect (from control value, lesion height)” value in experiment [3], in experiment [4] and in experiment [6] was 5 throughout. Besides, in experiment [5], the “evaluation value of control effect (from control value, lesion area percentage)” value was determined as 4.

Regarding `CC(C)CC(C)c1ccccc1N(C(=O)c1cn(C)nc1C(F)F)C(=O)c1scnc1C(F)(F)F` (centres unmarked) [1-333], the “evaluation value of control effect (from control value, number of lesions)” value in experiment [1], in experiment [2] and in experiment [7] was 5 each time. Besides, the “evaluation value of control effect (from control value, lesion height)” value in experiment [3], in experiment [4] and in experiment [6] was 5 in each case. Further, the “evaluation value of control effect (from control value, lesion area percentage)” value in experiment [5] was 4.

For `CCc1nc(C(F)F)c(C(=O)N(C(=O)c2snc(Cl)c2Cl)c2ccccc2C(C)CC(C)C)s1` (centres unmarked) [7-132], the “evaluation value of control effect (from control value, number of lesions)” value in experiment [1], in experiment [2] and in experiment [7] was 5 each time. Moreover, the “evaluation value of control effect (from control value, lesion area percentage)” value in experiment [5] is 4.

Consider `Cc1nc(C(F)F)c(C(=O)N(C(=O)c2cccc3nnsc23)c2ccccc2C(C)CC(C)C)s1` (centres unmarked) [7-200], for which the “evaluation value of control effect (from control value, number of lesions)” value in experiment [1], in experiment [2] and in experiment [7] was 5 throughout. Moreover, the “evaluation value of control effect (from control value, lesion area percentage)” value in experiment [5] was determined as 4.

On to `Cc1nc(C(F)F)c(C(=O)N(C(=O)c2snc(Cl)c2Cl)c2ccsc2C(C)CC(C)C)s1` (centres unmarked) [11-8], for which the “evaluation value of control effect (from control value, number of lesions)” value in experiment [1], in experiment [2] and in experiment [7] was 5 each time. Further, in experiment [5], the “evaluation value of control effect (from control value, lesion area percentage)” value worked out at 5.

For `CC(C)CC(C)c1ccccc1N(C(=O)c1cccnc1C(F)(F)F)C(=O)c1snc(Cl)c1Cl` (centres unmarked) [13-1], the “evaluation value of control effect (from control value, number of lesions)” value in experiment [1], in experiment [2] and in experiment [7] was 5 in each case. Moreover, in experiment [5], the “evaluation value of control effect (from control value, lesion area percentage)” value is recorded as 5.

On to `CC(C)CC(C)c1ccccc1N(C(=O)c1cccnc1F)C(=O)c1snc(Cl)c1Cl` (centres unmarked) [13-51], for which the “evaluation value of control effect (from control value, number of lesions)” value in experiment [1], in experiment [2] and in experiment [7] was 5 each time. The “evaluation value of control effect (from control value, lesion area percentage)” value in experiment [5] is on record as 4.

With `Cc1ncccc1C(=O)N(C(=O)c1snc(Cl)c1Cl)c1ccccc1C(C)CC(C)C` (centres unmarked) [13-52], the “evaluation value of control effect (from control value, number of lesions)” value in experiment [1], in experiment [2] and in experiment [7] was 5 each time. Further, in experiment [5], the “evaluation value of control effect (from control value, lesion area percentage)” value is listed as 4.

With `CC1CC(C)(C)c2cccc(N(C(=O)c3cn(C)nc3C(F)F)C(=O)c3cccc4nnsc34)c21` (centres unmarked) [25-73], the “evaluation value of control effect (from control value, number of lesions)” value in experiment [1], in experiment [2] and in experiment [7] was 5 in each case. The “evaluation value of control effect (from control value, lesion area percentage)” value in experiment [5] is listed as 5.

In the case of `CC1CC(C)(C)c2cccc(N(C(=O)c3cn(C)nc3C(F)F)C(=O)c3scnc3C(F)F)c21` (centres unmarked) [25-109], the “evaluation value of control effect (from control value, number of lesions)” value in experiment [1], in experiment [2] and in experiment [7] was 5 each time. Also, the “evaluation value of control effect (from control value, lesion area percentage)” value in experiment [5] stood at 4.

In the case of `Cc1nn(C)c(Cl)c1C(=O)N(C(=O)c1snnc1C(F)F)c1cccc2c1C(C)OC2(C)C` (centres unmarked) [25-117], the “evaluation value of control effect (from control value, number of lesions)” value in experiment [1], in experiment [2] and in experiment [7] was 5 throughout. Besides, the “evaluation value of control effect (from control value, lesion height)” value in experiment [3], in experiment [4] and in experiment [6] was 5 throughout.

As for `CCc1nc(C(F)F)c(C(=O)N(C(=O)c2sc(C)nc2C(F)F)c2cccc3c2C(C)OC3(C)C)s1` (centres unmarked) [26-70], the “evaluation value of control effect (from control value, number of lesions)” value in experiment [1], in experiment [2] and in experiment [7] was 5 each time. The “evaluation value of control effect (from control value, lesion height)” value in experiment [3], in experiment [4] and in experiment [6] was 5 throughout.

For `Cc1nc(C(F)F)c(C(=O)N(C(=O)c2cc(Cl)c(Cl)s2)c2cccc3c2C(C)OC3(C)C)s1` (centres unmarked) [26-90], the “evaluation value of control effect (from control value, number of lesions)” value in experiment [1], in experiment [2] and in experiment [7] was 5 throughout. For the same compound, the “evaluation value of control effect (from control value, lesion height)” value in experiment [3], in experiment [4] and in experiment [6] was 5 each time.

Consider `Cc1nc(C(F)F)c(C(=O)N(C(=O)c2onc(Cl)c2Cl)c2cccc3c2C(C)OC3(C)C)s1` (centres unmarked) [26-92], for which the “evaluation value of control effect (from control value, number of lesions)” value in experiment [1], in experiment [2] and in experiment [7] was 5 each time. Also, the “evaluation value of control effect (from control value, lesion height)” value in experiment [3], in experiment [4] and in experiment [6] was 5 in each case.

With `CC1OC(C)(C)c2cccc(N(C(=O)c3cccnc3C(F)F)C(=O)c3cccc4nnsc34)c21` (centres unmarked) [27-28], the “evaluation value of control effect (from control value, number of lesions)” value in experiment [1], in experiment [2] and in experiment [7] was 5 each time. The “evaluation value of control effect (from control value, lesion height)” value in experiment [3], in experiment [4] and in experiment [6] was 5 throughout.

In the case of `Cc1nc(C(F)F)c(C(=O)N(C(=O)c2cccnc2C(F)F)c2cccc3c2C(C)OC3(C)C)s1` (centres unmarked) [27-36], the “evaluation value of control effect (from control value, number of lesions)” value in experiment [1], in experiment [2] and in experiment [7] was 5 in each case. Besides, the “evaluation value of control effect (from control value, lesion height)” value in experiment [3], in experiment [4] and in experiment [6] was 5 in each case.
